Source: patent US20240140975A1, “ANTIVIRAL APPLICATION OF NUCLEOSIDE ANALOG OR COMBINATION FORMULATION CONTAINING NUCLEOSIDE ANALOG” (priority 2020, published 2024)
pEC50, pIC50: −log10 of the molar value. Like-named read-outs stand apart in the source and are kept apart here.

Legend:
[1] = molecular target: RNA-dependent RNA polymerase (RdRp) of 2019 novel coronavirus (SARS-CoV-2) (Severe acute respiratory syndrome coronavirus 2 (2019-nCoV) (SARS-CoV-2), UniProt P0DTD1); test: Inhibition of RdRp of novel coronavirus, fluorescence method; format: biochemical; details: for inhibition of the activity of RdRp (in words): RdRp of novel coronavirus
Procedure: According to the method reported in the literature (Virus Genes, 2015, 50:498-504), the inhibitory activity of the compound of the invention on RNA-dependent RNA polymerase (RdRp) of 2019 novel coronavirus (SARS-CoV-2) was determined using the fluorescence method: after the solution of the novel coronavirus RdRp, substrate, compound solution, buffer solution, etc were co-incubated for 1 hour, fluorescent DNA binding dye was added. 10 minutes later, data collection was carried out and the inhibitory activities of the compounds on RdRp were determined.

[2] = tested on: 2019 novel coronavirus (SARS-CoV-2); test: microbe, parasite or virus in culture; format: cell-based; details: for inhibition at 5 µM: read-out: Inhibition Rate (5 μM); for inhibition at 10 µM: read-out: Inhibition Rate (10 μM)
[3] = tested on: porcine epidemic diarrhea virus (PEDV); test: Anti-porcine epidemic diarrhea virus (PEDV) activity test in Vero cells, fluorescence quantitative PCR; format: cell-based; details: 36 h
[4] = in vitro; details: human
[5] = tested on: respiratory syncytial virus (RSV); test: Cytopathic effect (CPE) assay, RSV in HEp-2; format: cell-based; details: human respiratory syncytial virus, HEp-2 cells
[6] = in vitro; details: human; remark: listed apart in the source
[7] = tested on: human coronavirus OC43 (HCoV OC43); test: Cytopathic effect (CPE) assay, HCoV OC43 in Huh7; format: cell-based; details: Betacoronavirus 1, OC43, Huh-7, Huh7 cells
Procedure: The inhibitory effects of compounds on the replication of respiratory syncytial virus (RSV), human coronavirus OC43, influenza A virus, Zika virus (Zika) were tested using cytopathic effect (CPE) assay.
Experimental cells were inoculated in 96-well cell culture plate at a certain cell density, and cultured in an incubator (5% CO2, 37° C.) overnight. Compounds and viruses were added on the second day. […] Then cell viability of each well was detected using Cell Titer-Glo or CCK-8. […] The cytotoxicity test method was the same as the corresponding antiviral test method without virus infection.
The antiviral activity and cytotoxicity of the compounds are respectively indicated by the inhibition rate (%) of compounds on virus-induced cellular viral effects and cell viability (%). Calculating formulas are as follows:
Inhibition rate (%)=(reading value of test well—average value of virus control)/(average value of cell control—average value of virus control)×100;
EC50 and CC50 value are calculated by Prism software, and the inhibition curve fitting method is “log (inhibitor) vs. response—Variable slope”.

[8] = tested on: dengue fever virus (DENV); test: Dengue virus plaque reduction test in Vero cells; format: cell-based; details: for inhibition at 5 µM: Dengue virus, read-out: DENV (Vero) 5 μM (inhibition rate), 5 μM, plaque reduction
[9] = Severe acute respiratory syndrome coronavirus 2, Vero C1008, 24 h, 5 μM, Vero E6 cells, 24 h p.i.
[10] = Porcine epidemic diarrhea virus, Vero
[11] = Severe acute respiratory syndrome coronavirus 2, Vero C1008, 24 h
[12] = Severe acute respiratory syndrome coronavirus 2, Vero C1008, 24 h, 10 μM, Vero E6 cells, 24 h p.i.
[13] = Severe acute respiratory syndrome coronavirus 2, Vero C1008, Vero E6 cells, 24 h p.i., read-out: EC50

In the case of [2H]C([2H])(OP(=O)(O)OP(=O)(O)OP(=O)(O)O)[C@H]1O[C@@](C#N)(c2ccc3c(N)ncnn23)[C@H](O)[C@@H]1O [Compound A107], the “inhibition of the activity of RdRp (in words)” value (shortened to “inhibition … (in words)”) [1] was “significantly inhibit the activity of RdRp”.

For CC(C)C(=O)OC[C@H]1O[C@@](C#N)(c2ccc3c(N)ncnn23)[C@H](OC(=O)C(C)C)[C@@H]1OC(=O)C(C)C [Compound A131], the inhibition at 5 µM [2, 9] was > 98% and the pEC50 [3, 10] was > 7.00.

In the case of CC(C)C(=O)OC[C@H]1O[C@@](C#N)(c2ccc3c(N)ncnn23)[C@H](O)[C@@H]1O [Compound A50], the “Inhibition Rate (5 μM)” value ([2]; 5 μM, Vero E6 cells, 24 h p.i.) was 99%, the “Inhibition Rate (10 μM)” value ([2]; 10 μM, Vero E6 cells, 24 h p.i.) was 99% and the pEC50 ([2]; Vero E6 cells, 24 h p.i., read-out: EC50) was 6.64. It also gave a pEC50 [3] of 8.70.

With [2H]c1cc([C@]2(C#N)O[C@H](C([2H])([2H])OC(=O)[C@@H](N)C(C)C)[C@@H](O)[C@H]2O)n2ncnc(N)c12 [Compound A181] the inhibition at 5 µM [2, 9] was > 98%.

With [2H]C([2H])(OC(=O)C(C)C)[C@H]1O[C@@](C#N)(c2ccc3c(N)ncnn23)[C@H](O)[C@@H]1O [Compound A75] the inhibition at 5 µM [2, 9] was 99%, the CC50 [4] was > 10 µM and the pEC50 [5] was 6.31.

For [2H]c1cc([C@]2(C#N)O[C@H](C([2H])([2H])O)[C@@H](OC(=O)C(C)C)[C@H]2O)n2ncnc(N)c12 [Compound A188], the inhibition at 5 µM [2, 9] was > 98%.

CCC(CC)COC(=O)[C@H](C)N[P@](=O)(OC[C@H]1O[C@@](C#N)(c2cc(F)c3c(N)ncnn23)[C@H](O)[C@@H]1O)Oc1ccccc1 [Compound A84] gave an inhibition at 10 µM [2, 11] of 82%.

For [2H]C([2H])(O)[C@H]1O[C@@](C#N)(c2cc(F)c3c(N)ncnn23)[C@H](O)[C@@H]1O [Compound A12], the inhibition at 5 µM [2, 9] was > 98%.

Work on CCC(CC)COC(=O)[C@H](C)N[P@](=O)(OC[C@H]1O[C@@](C#N)(c2ccc3c(N)ncnn23)[C@H](O)[C@@H]1O)Oc1ccccc1 [Remdesivir, reference compound] yielded a CC50 [6] of 25.7 µM, an inhibition at 5 µM [2, 9] of 65% and an inhibition at 10 µM [2, 12] of 99%. For the same compound, the pEC50 [2, 13] was 5.70, the pEC50 [7] was 7.68 and the inhibition at 5 µM [8] was 100%.

In the case of [2H]c1cc([C@]2(C#N)O[C@H](C([2H])([2H])OC(=O)C(C)C)[C@@H](O)[C@H]2O)n2ncnc(N)c12 [Compound A180], the inhibition at 5 µM [2, 9] was > 98%.

For NC(=O)c1ncn([C@@H]2O[C@H](CO)[C@@H](O)[C@H]2O)n1 [Ribavirin, reference compound], the “DENV (Vero) value printed without unit” value ([8]; column head 5 μM, no % printed) was 17.4.

For [2H]c1cc([C@]2(C#N)O[C@H](CO)[C@@H](OC(=O)C(C)C)[C@H]2O)n2ncnc(N)c12 [Compound A144], the CC50 [6] was > 10 µM, the inhibition at 5 µM [2, 9] was 99% and the pEC50 [2, 13] was 6.62. The CC50 [4] was > 10 µM, the pEC50 [5] was 6.33 and the pEC50 [7] was 5.73. For the same compound, the pEC50 [3, 10] was > 7.00.

For [2H]c1cc([C@]2(C#N)O[C@H](C([2H])([2H])OP(=O)(O)OP(=O)(O)OP(=O)(O)O)[C@@H](O)[C@H]2O)n2ncnc(N)c12 [Compound A198], the “inhibition … (in words)” value [1] was “significantly inhibit the activity of RdRp”.

With [2H]C([2H])(O)[C@H]1O[C@@](C#N)(c2ccc3c(N)ncnn23)[C@H](O)[C@@H]1OC(=O)C(C)C [Compound A164] the inhibition at 5 µM [2, 9] was 99% and the pEC50 [2, 13] was 6.57.

In the case of [2H]c1cc([C@]2(C#N)O[C@H](C([2H])([2H])O)[C@@H](OC(=O)C(C)C)[C@H]2O)n2ncnc(N)c12 [Compound A173], the CC50 [4] was > 10 µM and the pEC50 [5] was 6.34.

With [2H]c1cc([C@]2(C#N)O[C@H](COC(=O)[C@@H](N)C(C)C)[C@@H](O)[C@H]2O)n2ncnc(N)c12 [Compound A72] the inhibition at 5 µM [2, 9] was 99%, the CC50 [4] was > 10 µM and the pEC50 [5] was 6.11.

Compound Nc1ncnn2c([C@]3(C4CC4)O[C@H](CO)[C@@H](O)[C@H]3O)ccc12 [Compound A28] has a pEC50 [3, 10] of 5.96 and an inhibition at 5 µM [8] of 6%.

With NC(=O)c1nc(F)cnc1O [Favipiravir, reference compound] the inhibition at 5 µM [2, 9] was 0% and the inhibition at 10 µM [2, 12] was < 20%.

With [2H]C([2H])(OC(=O)C(C)C)[C@H]1O[C@@](C#N)(c2ccc3c(N)ncnn23)[C@H](OC(=O)C(C)C)[C@@H]1OC(=O)C(C)C [Compound A171] the inhibition at 5 µM [2, 9] was > 98%.

For N#C[C@@]1(c2cc(I)c3c(N)ncnn23)O[C@H](CO)[C@@H](O)[C@H]1O [Compound A3], the inhibition at 10 µM [2, 12] was < 50%.

In the case of [2H]c1cc([C@]2(C#N)O[C@H](CO)[C@@H](OC(=O)[C@@H](N)C(C)C)[C@H]2O)n2ncnc(N)c12 [Compound A213], the CC50 [6] was > 10 µM, the inhibition at 5 µM [2, 9] was 99% and the pEC50 [2, 13] was 7.00. The CC50 [4] was > 10 µM, the pEC50 [5] was 6.12 and the pEC50 [7] was 5.71.

Compound CC(C)[C@H](N)C(=O)O[C@H]1[C@@H](O)[C@](C#N)(c2ccc3c(N)ncnn23)O[C@@H]1CO [Compound A212] has an inhibition at 5 µM [2, 9] of 99%, an inhibition at 10 µM [2, 12] of 99% and a pEC50 [2, 13] of 6.96.

In the case of N#C[C@@]1(c2ccc3c(=O)[nH]cnn23)O[C@H](CO)[C@@H](O)[C@H]1O [Compound A4], the inhibition at 10 µM [2, 12] was < 50%.

For [2H]c1cc([C@]2(C#N)O[C@H](COP(=O)(O)OP(=O)(O)OP(=O)(O)O)[C@@H](O)[C@H]2O)n2ncnc(N)c12 [Compound A106], the “inhibition … (in words)” value [1] was “significantly inhibit the activity of RdRp”.

In the case of N#C[C@@]1(c2cc(Cl)c3c(N)ncnn23)O[C@H](CO)[C@@H](O)[C@H]1O [Compound A2], the inhibition at 10 µM [2, 12] was < 50%.

With N#C[C@@]1(c2ccc3c(N)ncnn23)O[C@H](COP(=O)(O)OP(=O)(O)OP(=O)(O)O)[C@@H](O)[C@H]1O [Compound A109] the pEC50 [2, 11] was 6.24, the inhibition at 5 µM [2, 11] was 99% and the inhibition at 10 µM [2, 11] was 99%.

With CC(C)[C@H](N)C(=O)OC[C@H]1O[C@@](C#N)(c2ccc3c(N)ncnn23)[C@H](O)[C@@H]1O [Compound A52] the inhibition at 5 µM [2, 9] was > 98%.

With [2H]C([2H])(OC(=O)[C@@H](N)C(C)C)[C@H]1O[C@@](C#N)(c2ccc3c(N)ncnn23)[C@H](O)[C@@H]1O [Compound A77] the inhibition at 5 µM [2, 9] was > 98%.

Work on CO[C@@H]1[C@H](O)[C@@H](CO)O[C@@]1(C#N)c1ccc2c(N)ncnn12 [Compound A221] yielded a pEC50 [3, 10] of 5.87 and an inhibition at 5 µM [8] of 51%.

With N#C[C@@]1(c2cc(F)c3c(N)ncnn23)O[C@H](CO)[C@@H](O)[C@H]1O [Compound A1] the inhibition at 5 µM [2, 9] was 80% and the inhibition at 10 µM [2, 12] was 97%.

Work on N#C[C@@]1(c2ccc3c(N)ncnn23)O[C@H](CO)[C@@H](O)[C@H]1O [Compound A216] yielded a pEC50 [3] of 5.72 and an inhibition at 5 µM [8] of 24%.

For [2H]C([2H])(O)[C@H]1O[C@@](C#N)(c2ccc3c(N)ncnn23)[C@H](O)[C@@H]1OC(=O)[C@@H](N)C(C)C [Compound A214], the inhibition at 5 µM [2, 9] was 99% and the pEC50 [2, 13] was 6.96.

With [2H]c1cc([C@]2(C#N)O[C@H](C([2H])([2H])OC(=O)C(C)C)[C@@H](OC(=O)C(C)C)[C@H]2OC(=O)C(C)C)n2ncnc(N)c12 [Compound A196] the inhibition at 5 µM [2, 9] was > 98%.

With NC(=O)[C@@]1(c2ccc3c(N)ncnn23)O[C@H](CO)[C@@H](O)[C@H]1O [Compound A112] the inhibition at 10 µM [2, 12] was < 50%.

With N#C[C@@]1(c2cc(F)c3c(N)ncnn23)O[C@H](COP(=O)(O)OP(=O)(O)OP(=O)(O)O)[C@@H](O)[C@H]1O [Compound A102] the pIC50 ([1]; RdRp of 2019 novel coronavirus) was 5.00 to 6.00 and the “inhibition … (in words)” value [1] was “significantly inhibit the activity of RdRp”.

For [2H]c1cc([C@]2(C#N)O[C@H](C([2H])([2H])O)[C@@H](OC(=O)[C@@H](N)C(C)C)[C@H]2O)n2ncnc(N)c12 [Compound A215], the inhibition at 5 µM [2, 9] was > 98%.
